Reference: a melting point compilation (Tetko et al.; mined from patent text by program, amines drawn as free bases though some values may be those of a salt)

SMILES | melting point [°C]
O=C(Nc1nc2ccc(C(F)(F)F)cc2s1)c1c(F)cccc1F | 256 to 257
COc1ccc2c(c1OCc1ccccc1)CC(C(=O)O)N(C(=O)N(C)c1ccccc1)C2 (racemic) | 134 to 136
CC(=O)Oc1ccccc1-c1ccc(=O)[nH]n1 | 181 to 184
O=C(c1ccccc1)c1cc([N+](=O)[O-])ccc1OCCO | 124 to 126
N#Cc1ccc2c(c1)C=C(C(=O)O)C(C(F)(F)F)N2 (stereo not given) | 238 to 240
Cn1cnc(COc2n[nH]c(C=O)c2-c2ccccc2)n1 | 202 to 205
O=C(C=Cc1ccc(O)cc1)NCCO | 149 to 151
Cc1cccc(-c2nn3c(c2-c2ccc(F)cc2)CC[C@H]3CO)n1 | 142 to 144
CCCCCCCC[C@H](N[C@@H](C)C(=O)N1C(=O)N(C)C[C@H]1C(=O)O)C(=O)OCC | 85 to 86
Cc1ccc(N)cc1C(=S)OC(C)(C)C | 76 to 78
COC(=O)C(C(=O)OC)c1ccccc1COc1ccccc1C | 99 to 103
CC(O)COc1cccc2oc(C(N)=O)cc(=O)c12 (stereo not given) | 229 to 231
O=C(NNC(=O)c1ccc([N+](=O)[O-])cc1)c1ccc([N+](=O)[O-])cc1 | 294
Cc1cccc2c1NC(=O)C2(c1ccc(O)cc1)c1ccc(O)cc1 | 272 to 274
COC1=C(C#N)C(=O)N(C)C1=O | 123 to 125
COc1ccccc1NC1c2cc(NC(=O)CC(C)(C)C)c(C)c(C)c2OC1(C)C (stereo not given) | 184 to 185
COc1cc(C(=O)Cc2ccccc2C)ccc1O | 79 to 81
Cc1ccc(-c2cn(C)cc(-c3cccc(C)c3)c2=O)cc1 | 155 to 157
COc1ccc(CNc2nc(NCCCc3ccc(C(C)=O)cc3)nc3ncccc23)cc1OC | 184 to 185
CN(C)C=Nc1c(Cl)cc(N=Cc2cccc(F)c2)cc1Cl | 95 to 96
CC(C(=O)O)c1ccc2c(c1)C(=O)c1ccccc1CN2C (stereo not given) | 155 to 158
C#Cc1c(C#N)nn(-c2c(Cl)cc(C(F)(F)F)cc2Cl)c1N | 215 to 216
O=C(Nc1ccc(-n2nc(C(F)(F)F)cc2C(F)(F)F)cc1)c1ccc(I)cc1 | 196 to 198
CNC(=O)c1cc(NC(=O)c2ccc(C)c(Nc3nccc(N4C=CC=NC4)n3)c2)cc(N2CCOCC2)c1 | 153 to 156
NC(=O)c1nc(-c2cccc(O)c2)nc2c1[nH]c(=O)n2-c1ccc(Cl)cc1Cl | 375 to 377

SMILES | melting point [°C]
O=C(O)c1ccc(OCCNC(=O)C2Cc3ccccc3N2S(=O)(=O)c2ccc(-c3ccc(F)cc3)cc2)c(C(F)(F)F)c1 (stereo not given) | 139 to 142
NC(=O)c1cc2c(cc1OCC1CCCCC1)OCCC[C@@H]2N | 145 to 146
CCCCc1nn(Cc2ccc(-c3ccccc3-c3nnn[nH]3)cc2)c(=O)n1Cc1ccc(-c2ccccc2-c2nnn[nH]2)cc1 | 150 to 151
CCCCCCCCCCCCCCCCSCC(CNS(=O)(=O)CCCI)NC(=O)OCCCC (stereo not given) | 82 to 83
CCc1nn(C(C)C)c2cc(C(=O)Nc3c(Cl)cncc3Cl)ccc12 | 145 to 148
C#Cc1cn(-c2c(Cl)cc(C(F)(F)F)cc2Cl)c2ccccc12 | 120 to 122
O=C(Cl)c1cc2n(c1)CCc1ccccc1C2=O | 147
CCCCc1cn(Cc2ccc(-c3ccccc3C(=O)O)cc2)c2c(Br)cccc2c1=O | 180
OCc1nnc(-c2ccc3occ(-c4cccc(OC(F)(F)F)c4)c3c2)o1 | 158 to 159
Cc1cc2ccccc2c(Cl)c1C | 55
CCCCCCCCN(CC(=O)NO)S(=O)(=O)c1ccc(C)cc1 | 89
CNS(=O)(=O)c1ccc(N2CCN(c3ccncc3)CC2)cc1 | 204 to 206
COc1ccc2cc(S(=O)(=O)Cl)cc(OC)c2c1 | 134
CSC(=NS(=O)(=O)c1ccccc1Cl)SC | 119 to 123
C#Cc1c(C(C)C)nc(-c2ccccc2)n1-c1ccc(F)cc1 | 148 to 150
O=c1cc(Oc2ccccc2)c(-c2nc[nH]n2)cn1-c1ccccc1 | 275 to 276
COc1ccc(Cn2nc(-c3cccc(Cl)c3)c3ncccc3c2=O)cn1 | 145
COC(=O)c1cc(N)c(N2CCCCC2)c(S(C)(=O)=O)c1 | 178 to 179
Nc1ncc2c(n1)CCC(CNC(=O)[C@@H]1CCCN1C(=O)[C@@H](CC1CCCCC1)NS(=O)(=O)Cc1ccccc1)C2 (stereo not given in full) | 118 to 121
O=C1CC(c2c(Cl)cccc2Cl)CN1 (stereo not given) | 153 to 154
CCc1[nH]n(C2CCCC2)c2nc(Cc3ccc(OCC(=O)O)cc3)nc(=O)c1-2 | 218 to 220
On1c(C(F)(F)F)nc2c(OCc3ccccc3)cc(Br)cc21 | 211 to 214
Cc1cc(C2=NN(c3nccs3)[C@H](C)Cc3cc4c(cc32)OCO4)cc(C)c1[N+](=O)[O-] | 167
COc1cc(NC2CCCCC2)c2ccccc2c1OC(C)=O | 134 to 136
Nc1nc2nc(N3CCNCC3)nc(N)c2nc1-c1ccccc1 | 233 to 236
